In PubChem BioAssay (NCI) one finds GI50 and TGI data, which are given here for seven molecules.

Test systems include ACHN renal; BT-549 breast; DU-145 prostate; HCT-15 colon; HOP-62 NSCLC; M14 melanoma; MDA-MB-435; OVCAR-3 ovarian; SK-MEL-5 melanoma; SNB-75 CNS.
Common to all, as to experiment: NCI anticancer screen, dose series, 48 h

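Exposure lasted 48 hours, with cells grown in 96-well plates and compounds tested at five concentrations. The concentration for 50% growth inhibition is given as GI50. At the TGI there is no net growth.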 Some results are limits rather than exact numbers.

Turning to `C[C@]12CC[C@@H]3c4cc(OC(F)F)c(OS(N)(=O)=O)cc4CC[C@H]3[C@@H]1CC[C@@H]2O`, the GI50 is 0.65 µM in the assay on ACHN renal; 0.901 µM in the assay with BT-549 breast; 0.49 µM in the assay with DU-145 prostate; 0.406 µM in the assay with HCT-15 colon; 0.592 µM in the assay with HOP-62 NSCLC; 0.343 µM in the assay with M14 melanoma. For the same molecule, the GI50 in the assay with MDA-MB-435 is 0.209 µM; in the assay on OVCAR-3 ovarian, 0.39 µM; in the assay with SK-MEL-5 melanoma, 0.315 µM; with SNB-75 CNS, 0.193 µM. Besides, the TGI is 49.1 µM in the assay with ACHN renal; 16.9 µM in the assay with BT-549 breast; above 100 µM with DU-145 prostate; 13.6 µM with HCT-15 colon; 27.3 µM with HOP-62 NSCLC; 14.6 µM in the assay on M14 melanoma. Also, the TGI with MDA-MB-435 turned out to be 0.603 µM; with OVCAR-3 ovarian, 11.1 µM; in the assay on SK-MEL-5 melanoma, 3.56 µM; in the assay with SNB-75 CNS, 0.665 µM.
For the molecule `O=C1c2sccc2-c2cccc3cccc1c23` (tested in a mixture with another compound), the TGI was 12.2 µM in the assay on ACHN renal; 25.7 µM in the assay on BT-549 breast; 7.03 µM in the assay on DU-145 prostate; 24.9 µM in the assay with HCT-15 colon; above 100 µM with HOP-62 NSCLC; above 100 µM in the assay with M14 melanoma. For the same molecule, the values for the TGI with MDA-MB-435, in the assay with OVCAR-3 ovarian and in the assay with SNB-75 CNS were above 100 µM, 67.8 µM and 37.3 µM, respectively.
`CSc1nc2sc3c(c2c(=O)n1-c1ccc(C(C)C)cc1)CCC(=O)C3`: the GI50 in the assay on ACHN renal was 2.25 µM; in the assay on BT-549 breast, 2.94 µM; in the assay on DU-145 prostate, 3.75 µM; in the assay on HCT-15 colon it was 2.14 µM; with HOP-62 NSCLC it was 2.05 µM; in the assay with M14 melanoma, 2.82 µM. In addition, the GI50 with MDA-MB-435 was 1.85 µM; with OVCAR-3 ovarian it was 1.94 µM; in the assay with SK-MEL-5 melanoma, 1.71 µM; in the assay on SNB-75 CNS, 2.22 µM. The TGI in the assay on ACHN renal is 4.48 µM; in the assay with BT-549 breast, 8.36 µM; with DU-145 prostate it was above 100 µM; with HCT-15 colon, 4.04 µM; in the assay with HOP-62 NSCLC, 4.05 µM; in the assay with M14 melanoma it was 7.6 µM. Moreover, the TGI in the assay on MDA-MB-435 came out at 3.71 µM; with OVCAR-3 ovarian it was 3.53 µM; with SK-MEL-5 melanoma it was 3.36 µM; with SNB-75 CNS it was 5.21 µM.
For the molecule `O=C(CC1(O)C(=O)N(Cc2ccccc2)c2ccccc21)c1ccc(C(=O)NCC2CCC3(CC2)OOC2(CCCCC2)OO3)cc1` (configuration not stated), the GI50 in the assay on ACHN renal is 0.195 µM; in the assay with BT-549 breast, 1.88 µM; with DU-145 prostate it was 0.25 µM; with HCT-15 colon, 1.76 µM; in the assay on HOP-62 NSCLC it was 0.273 µM; with M14 melanoma, 2.48 µM. Besides, the GI50 is 0.875 µM in the assay on MDA-MB-435, 1.21 µM with OVCAR-3 ovarian, 1.66 µM in the assay on SK-MEL-5 melanoma and 1.58 µM in the assay on SNB-75 CNS. Moreover, the TGI with ACHN renal was determined as 0.399 µM; in the assay on BT-549 breast, 4.03 µM; in the assay on DU-145 prostate, 0.625 µM; in the assay on HCT-15 colon, 4.76 µM; in the assay with HOP-62 NSCLC, 0.86 µM; in the assay on M14 melanoma, 7.26 µM. Moreover, the TGI amounted to 2.45 µM in the assay on MDA-MB-435, 2.74 µM with OVCAR-3 ovarian, 3.14 µM in the assay with SK-MEL-5 melanoma and 3.44 µM in the assay on SNB-75 CNS.
For `Cn1cc(C2=C(c3cccc(OC[C@@H](O)CO)c3)C(=O)NC2=O)c2ccccc21`, the GI50 was 16.5 µM with ACHN renal; 12.3 µM in the assay on BT-549 breast; above 25 µM in the assay with DU-145 prostate; above 25 µM in the assay on HCT-15 colon; above 25 µM with HOP-62 NSCLC; above 25 µM in the assay with M14 melanoma. The GI50 is above 25 µM in the assay with MDA-MB-435, 11.2 µM with OVCAR-3 ovarian, above 8.72 µM with SK-MEL-5 melanoma and 0.0944 µM in the assay with SNB-75 CNS. Further, the TGI in the assay on ACHN renal, in the assay with BT-549 breast, with DU-145 prostate, in the assay on HCT-15 colon, with HOP-62 NSCLC and with M14 melanoma was above 25 µM in each case. For the same molecule, the TGI in the assay on MDA-MB-435, in the assay on OVCAR-3 ovarian, in the assay on SK-MEL-5 melanoma and in the assay with SNB-75 CNS was above 25 µM in each case.
As for `N#CC1=C(/N=C/c2ccccc2)Oc2c(ccc3ccccc23)C1c1ccccc1` (configuration not stated), the GI50 is 0.591 µM in the assay with ACHN renal; 0.951 µM with BT-549 breast; 0.735 µM with DU-145 prostate; 0.494 µM with HCT-15 colon; 0.646 µM in the assay with HOP-62 NSCLC; 0.484 µM with M14 melanoma. Besides, the GI50 with MDA-MB-435 was 0.227 µM; in the assay with OVCAR-3 ovarian, 0.341 µM; in the assay with SK-MEL-5 melanoma, 0.378 µM. Moreover, the TGI with ACHN renal is above 100 µM; with BT-549 breast, above 24.5 µM; with DU-145 prostate it was above 64.3 µM; with HCT-15 colon it was above 100 µM; in the assay on HOP-62 NSCLC, above 100 µM; with M14 melanoma it was above 100 µM. For the same molecule, the TGI in the assay with MDA-MB-435 amounted to 0.573 µM; in the assay with OVCAR-3 ovarian, 2.3 µM; in the assay on SK-MEL-5 melanoma, 2.5 µM.
For `O=[N+]([O-])c1ccc(N2CCOCC2)c2c1no[n+]2[O-]`, the GI50 was 0.528 µM in the assay on ACHN renal; 1.64 µM in the assay with BT-549 breast; 1.42 µM in the assay on DU-145 prostate; 1.32 µM in the assay with HCT-15 colon; 1.61 µM in the assay with HOP-62 NSCLC; 1.11 µM in the assay on M14 melanoma. Further, the GI50 in the assay with MDA-MB-435 was 2.15 µM; in the assay on OVCAR-3 ovarian it was 1.4 µM; in the assay on SK-MEL-5 melanoma it was 1.41 µM; in the assay with SNB-75 CNS, 0.822 µM. The TGI in the assay on ACHN renal was determined as 3.15 µM; in the assay with BT-549 breast it was 6.25 µM; with DU-145 prostate, 5.76 µM; in the assay on HCT-15 colon it was 2.89 µM; in the assay on HOP-62 NSCLC, 6.58 µM; in the assay on M14 melanoma, 3.81 µM. Also, the TGI in the assay on MDA-MB-435 turned out to be 7.35 µM; in the assay on OVCAR-3 ovarian, 3.15 µM; with SK-MEL-5 melanoma, 3.34 µM; in the assay with SNB-75 CNS, 5.56 µM.
